Assays:
Format in all cases: cell-based
[1] = system: matrix metalloproteinase-1 (MMP1); assay: MMP1 expression by human skin fibroblasts in collagenase-fragmented three-dimensional collagen lattices; conditions: 1 nM, relative to controls (FIG. 3)
Description: (§1) In photoaged human skin in vivo, skin wrinkling was accompanied by elevated collagenase levels that stimulated collagen fragmentation and ROS production. This Example describes an in vitro model of skin collagen fragmentation that was created and tested for the effects of antioxidant compounds. Materials and methods for preparing three-dimensional extracellular matrix (ECM) collagen lattices, for culturing skin fibroblasts and keratinocytes thereupon, and for treating such matrices with, and characterizing the effects on them of, matrix metalloproteinases (MMPs) have been described (see, e.g., Pilcher et al., 1997 J. Cell Biol. 137:1445; Notary et al., 2000 J. Cell Biol. 149:1309; Netzel-Arnett et al., 2002 J. Biol. Chem. 277:45154; Fisher et al., 2002 Arch Dermatol. 138:1462; Kang et al., 2003 J. Invest. Dermatol. 120:835; Xu et al., 2006 Am J Pathol. 169:823; Xu et al., 2006 J Biol. Chem 281:27389).
(§2) Human skin fibroblasts were cultured in three-dimensional collagen lattices, which mimicked the dermal extracellular matrix. In intact collagen lattices, dermal fibroblasts spread by attachment to the collagen, and produced relatively low levels of the collagenase known as matrix metalloproteinase-1 (MMP1). […]

[2] = system: ERK1; assay: UV irradiation-induced ERK1 phosphorylation in cultured human keratinocytes
Description: (§3) Ultraviolet (UV) irradiation causes skin photoaging and has been reported to activate mitogen-activated protein (MAP) kinase signal transduction pathways. (Fisher et al., 1998 J. Clin. Invest. 101:1432; Kang et al., 2003 J. Invest. Dermatol. 120:835). The mechanism of UV activation of the epidermal growth factor receptor (EGFR) in such pathways remains unknown, although a role for ROS has been implicated (Xu et al., 2006 Am. J. Pathol. 169:823; Xu et al., 2006 J. Biol. Chem. 281:27389). This Example describes an in vitro model of UV-induced signal transduction in human keratinocytes. Publications describing exemplary materials and methods that were adapted to perform these experiments include e.g., Pilcher et al., 1997 J. Cell Biol. 137:1445; Notary et al., 2000 J. Cell Biol. 149:1309; Netzel-Arnett et al., 2002 J. Biol. Chem. 277:45154; Fisher et al., 2002 Arch Dermatol. 138:1462; Kang et al., 2003 J. Invest. Dermatol. 120:835; Xu et al., 2006 Am J Pathol. 169:823; Xu et al., 2006 J Biol. Chem 281:27389.
(§4) Exposure of cultured human keratinocytes to UV irradiation activated ERK MAP kinase, as evidenced by elevated levels of phosphorylated ERK polypeptide in immunoprecipitates from UV-irradiated keratinocytes relative to untreated control keratinocytes. (FIG. 4)

[3] = system: ERK2; assay: UV irradiation-induced ERK2 phosphorylation in cultured human keratinocytes
Description: as §3, §4

[4] = system: human skin fibroblasts; assay: ROS production by human skin fibroblasts in collagenase-fragmented three-dimensional collagen lattices; conditions: 1 nM, relative to controls (FIG. 2)
Description: as §1, §2

[5] = system: ERK MAP kinase; assay: UV irradiation-induced activation of ERK MAP kinase in cultured human keratinocytes; conditions: pretreatment of keratinocytes with the indicated concentrations (FIG. 4)
Description: as §3, §4

[6] = exposure to MitoQ10 (FIG. 4 lower panel)
[7] = incubation of keratinocytes prior to UV irradiation (FIG. 4 upper panel)

COC1=C(OC)C(=O)C(CCCCCCCCCC[P+](c2ccccc2)(c2ccccc2)c2ccccc2)=C(C)C1=O.CS(=O)(=O)[O-] [MitoQ10 mesylate, [10-(4,5-dimethoxy-2-methyl-3,6-dioxo-1,4-cyclohexadien-1-yl)decyl] triphenylphosphonium methanesulfonate]
matrix metalloproteinase-1 expression, MMP1 mRNA [1]: significantly reduced
matrix metalloproteinase-1 expression, MMP1 protein [1]: significantly reduced
amount of Erk1 in the keratinocytes [2, 6]: not altered
ERK1 phosphorylation [2, 7]: significantly reduced
amount of Erk2 in the keratinocytes [3, 6]: not altered
ERK2 phosphorylation [3, 7]: significantly reduced
oxidant (ROS) levels [4]: significantly reduced
activation of ERK MAP kinase by subsequent UV irradiation [5]: substantially inhibited
